In US12594255B2, “Lipids with odd number of carbon atoms and their use as pharmaceutical composition or nutritional supplement” (SunRegen Healthcare AG, priority 2016, dated 2026):
Several values for one entry are separate records, joined by “and”; a condition that tells them apart may be missing. Identical values can stand only once.

Experiments:
[1] = system: age-induced protein aggregates in Saccharomyces cerevisiae; assay: Age-induced protein aggregates (Hsp104-GFP foci) in old yeast cells; assay type: cell-based; settings: for proportion of cells with a Hsp104-GFP focus: vehicle only 58.7±10.6%
Procedure: FIG. 9a: Representative images of a young cell, or old cells untreated or treated with Herb B (10 μg/ml) or Compound C (30 μM). Upper panels are maximum projection of z-series stacks of cells stained with fluorescent brightener 28 and imaged in the DAPI channel to reveal bud scars. Lower panel are single focal planes images of the same cells that express Hsp104-GFP and imaged in the GFP channel. Arrow point at an Hsp104-GFP focus.
FIG. 9c: Percentage of cells with an Hsp104-GFP focus. Cells were imaged with the same illumination conditions. All old cells imaged were included (between 75 and 94 cells). All focal planes were examined Mean±SD. P values are adjusted p values from an ANOVA comparing to vehicle only.
FIG. 9d: Average fluorescence intensity of Hsp104-GFP in the cell as a proxy for Hsp104-GFP concentration. Mean±SD. P values are adjusted p values obtained from ANOVA comparing to vehicle only
To test an effect on the formation of age-induced Hsp104-GFP foci, old cells were obtained and cultivated in the presence of Compound C (1 μM, 10 μM and 30 μM). Herb B (10 μg/ml), ethanol (0.3%, vehicle only) or in the absence of any treatment. Untreated young cells were obtained through a simple exponential growth.
Age was determined by staining bud scars with fluorescent brightener 28. […] (FIG. 9b)

[2] = system: patients suffered from incurable diseases; assay: Case reports of patients eating functional food containing SBC003; assay type: in vivo, human
Source text: Compound C (tripentadecanoin) is a natural lipid which can be found in specific herbs, but can also be found in human/animal milk. The patients described in examples II suffered from incurable diseases without any efficient treatment have voluntarily requested the functional food which containing SBC003.

[3] = system: mouse primary cortical neurons; assay: Axonal growth (MAP2 immunolabelling, axonal length); assay type: cell-based; settings: vehicle control 165.96±90.18 μm
Procedure: Mouse primary cortical neurons were pre-incubated for 48 h with vehicle, 60 nM sAPPα (used as positive control) or different concentrations of Compound C. Then, cortical neurons were treated for 24 h with vehicle. Data are represented as % of vehicle control (Mean±SD).
Cortical neurons from embryonic day 16-17 are prepared from C57Bl6/J mouse fetuses, as described in Example I-1. After 96-h incubation, axonal length is recorded. Briefly, cells were washed with ice-cold PBS and fixed with cold methanol. Following fixation, cells are immunolabelled using a specific antibody detecting total MAP2 protein. Antibodies to MAP2 are excellent markers on neuronal cells, their axons and neuronal dendrites. For quantification of axonal length, six independent images of labelled cells are captured using an inverted microscope. Pictures of cells are analyzed using Neuron-J software and axonal length is recorded manually. A minimum of 100 independent neurons are treated. The data are expressed as mean axonal length (expressed in μm) (Mean±SD). Statistical differences between vehicle-treated cells and cells treated with compounds are determined using a t-test.

[4] = system: mouse primary cortical neurons challenged with Aβ1-42 oligomers (AβO); assay: AβO-induced neurotoxicity, test item added concomitantly (T0) or 3 h (T3) or 6 h (T6) after AβO, MTT assay; assay type: cell-based; settings: for % of neuroprotection and anti-apoptotic effects / viability at 1 µM: 1000 nM
Procedure: Mouse primary cortical neurons were treated at 0 h (T0) with vehicle or 1 μM AβO, Different concentrations of Compound C or HNG (0.1 μM, used as positive control) were added concomitantly to AβO at 0 h (T0)), 3 h (T3) or 6 h (T6) after AβO. Then, cortical neurons were incubated for 24 h and cell viability was determined using the MTT assay (n=3 determinations per condition, 1 independent experiment). Data are represented as % of vehicle control (Mean±SD). […]
The aim of this study is to determine whether Compound C might present neuroprotective, anti-apoptotic and neuro-rescuing effects in in vitro AβO induced neuron death models. For that purpose, the neuro-protective effects of compound C at six concentrations were investigated using mouse primary cortical neurons challenged with Aβ1-42 oligomers (AβO) Compounds were added at different time points (concomitantly T0 with AβO and T3, or T6 after AβO) with the aim to identify rescuing effects or anti-apoptotic effects.
Cortical neurons from embryonic day 16-17 are prepared from C57Bl6/J mouse fetuses, as described in Example I-1.
Mouse cortical neurons were exposed for 24 h to 1.0 μM AβO. The AβO-induced neurotoxicity was evaluated using the MTT assay. […] (FIG. 4)
The percentage of neuroprotection and anti-apoptosis effects was defined as; (neuron viability of compound C group−neuron viability of toxin treated group)/(100−neuron viability of toxin treated group)×100%. The % of neuroprotection and anti-apoptotic effects of compound C at 1000 nM is 88.7%, 52.0%, 22.3%, at T0, T3, or T6, respectively. (FIG. 4) […]

CCCCCCCCCCCCCCC(=O)OCC(COC(=O)CCCCCCCCCCCCCC)OC(=O)CCCCCCCCCCCCCC [Compound C, tripentadecanoin]
proportion of cells with a Hsp104-GFP focus ([1]; 1 μM, not statistically significant): 46.2±4.8% | proportion of cells with a Hsp104-GFP focus ([1]; 10 μM): 37.5±6.0% | proportion of cells with a Hsp104-GFP focus ([1]; 30 μM): 34.3±13.7% | intensity of Hsp104-GFP (increase in old vs young cells) ([1]; compound C 1, 10, 30 μM, herb B 10 μg/ml): reduced the extent of this increase | serum creatinine, average level ([2]; female, chronic kidney failure, on treatment, before mean 9.21 mg/dl): 8.88 mg/dL | serum creatinine ([2]; female, chronic kidney failure, single values on treatment, before mean 9.21 mg/dl, listed as SBC003): 8.88 mg/dL and 8.97 mg/dL and 8.55 mg/dL and 9.12 mg/dL | time breathing by themself ([2]; person, ALS, ventilator, functional food containing SBC003 about 10 mg/day, about one month, before at the most 30 mins/day): about 55 mins/day | Parkinson's symptoms ([2]; person, Parkinson's disease, functional food containing SBC003 about 10 mg/day, after about one week): abnormal shaking in feet improved | symptoms of asthma ([2]; person, asthma about 20 years, about 5 mg/time for about few times): greatly improved | asthma symptoms ([2]; person, asthma about 29 years, functional food containing SBC003 about 5 mg for one or two time): symptoms greatly improved | facial expression / communication ([2]; person, cerebellar atrophy, functional food containing SBC003 about 10 mg/day, after about one month): started to smile | urine volume once per day ([2]; person, chronic kidney failure, haemodialysis, no urine before, about 10 to 25 mg/day for about 1 month, after about 2 months): 10 mL | urine total volume per day ([2]; person, chronic kidney failure, after increasing to 50-100 mg/day for about 2-3 months): about 50 ml per day | blood glucose level ([2]; person, chronic kidney failure, on treatment, prior to the treatment 130-180 mg/dl): 70 to 105 mg/dL | vision (patient-reported) ([2]; person, optic atrophy, blind, functional food containing SBC003 about 7 mg/day for 7 days, after about one month): brighter and better vision | sitting time ([2]; person, spinal fractures, about 20 mg/day, about 10 days, before only 1 hour/time): up to 2 hours | remaining lumbar pains ([2]; person, spinal fractures, functional food containing SBC003 about 20 mg/day, about 10 days): 40 % of the pains before taking SBC003 | neuronal axon outgrowth (mean axonal length) ([3]; 1000 nM): 199.93±101.17 μm | neuronal axon outgrowth (mean axonal length) ([3]; 10000 nM): 304.27±149.60 μm | % of neuroprotection and anti-apoptotic effects ([4]; T0): 88.7% | % of neuroprotection and anti-apoptotic effects ([4]; T3): 52.0% | % of neuroprotection and anti-apoptotic effects ([4]; T6): 22.3% | viability at 0.32 µM ([4]; Mus musculus, Primary cortical neuron, 320 nM, added 3 h after AβO (T3)): 65.3 ± 2.6% | viability at 1 µM ([4]; Mus musculus, Primary cortical neuron, added 3 h after AβO (T3)): 76.6 ± 2.9% | viability at 1 µM ([4]; Mus musculus, Primary cortical neuron, added 6 h after AβO (T6)): 62.4 ± 3.5% | viability at 1 µM ([4]; Mus musculus, Primary cortical neuron, added concomitantly to AβO (T0)): 94.5 ± 4.6%
